In US20210393856A1, “COMPOSITIONS AND METHODS FOR REDUCING CALCIFICATION OF HEART VALVES” (Arizona Board of Regents on Behalf of the University of …, priority 2018, published 2021):

What was measured:
AVM cell cultures = assay: qPCR measurement of osteogenic marker expression by AVM cell cultures (ATP, PO4, CD73); format: cell-based, mouse
Excerpt: (§1) Over 5 days, exposure to this concentration of ATP is apoptotic as measured by the ratio of Bax/Bcl2, and this may contribute to calcification.

[1] = tested on: Alkaline phosphatase (ALP); conditions: aortas incubated in osteogenic medium (Zukowska et al., 2017); cited from earlier work
valve cell cultures = assay: Apoptosis measured by the ratio of Bax/Bcl2 in valve cell cultures; format: cell-based; conditions: 100 μM, over 5 days
Excerpt: as §1

AVM cultures = assay: Effects of adenosine and adenosine receptor agonists on Runx2 expression in AVM cultures (qPCR); format: cell-based, mouse; conditions: for expression of Runx2 compared to control cultures: up to 5 days, FIG. 12
Excerpt: Expression was normalized to GAPDH. Average of 3 independent repeats with SEM.
Runx2 expression increases in calcifying AVM cells with time in culture. Cells treated with either 2′-MeCCPA (A1 agonist) or PSB0777 (A2a agonist) up to 5 days.
Adenosine levels were confirmed using HPLC.

mouse VIC = assay: Osteogenic markers after mouse VIC incubation with adenosine receptor agonists; format: cell-based; conditions: mouse VIC / AVM cell cultures, FIG. 8
calcifying AVM cells = assay: Runx2-II and Mgp in calcifying AVM cells in the presence of AMP; format: cell-based, mouse; conditions: FIG. 9
[2] = tested on: calcifying AVM cell cultures; assay: Runx2 isoform and osteogenic marker expression in calcifying AVM cell cultures with various treatments; format: cell-based, mouse
Description: Embryonic precursors of valvular interstitial cells (VICs) calcify when grown as tissue culture aggregates similar to micromass cultures of limb cells developed by (Ahrens et al., 1977). A mouse fetal VIC cell line (AVM cells) obtained from the Immortamouse (gift of Kai Jiao, UAB) were used to investigate calcification. These cells express a temperature sensitive Large T antigen and are immortal at 33° C. and revert to a valvular phenotype at 37° C.
The cell and organ culture models described above are used to study valve calcification by staining and expression of osteogenic markers. […] Both Runx2 isoform levels are elevated concomitant with calcification in vitro and in situ. To explore the relationship between identified regulators and markers of the osteogenic program in calcifying valve tissues, Runx2 isoform and osteogenic marker expression was measured in calcifying AVM cell cultures with various treatments. AVM cultures were treated with siRNA against Runx2-II, noggin (inhibitor of BMP), an anti-TGFβ antibody (against all three isoforms), and DAPT (inhibitor of Notch signaling). […] These indicate that Runx2 is a fairly central player in this calcification process but that Runx2 expression, in these cultures, is independent of TGFβ and BMP signaling.
For cell culture, human and porcine VICs and human valvular endothelial cells (VECs) are used. VICs are expanded from initial culture and stored as aliquots in liquid nitrogen. All experiments are performed with low passage number cells and each cell source is profiled by the UA Genetics Core to confirm and maintain the identity of each cell line. A mouse AV valve mesenchymal cell line (AVM) was obtained from Kai Jao (U. of Ala., Birmingham). These cells were from mice containing a temperature sensitive large T transgene (Immorta-Mouse) and the cells were grown at 33° C. to obtain an immortal cell line (Peng et al., 2017). The cells revert to a cushion/valve phenotype at 37° C. The micromass cultures of Solursh and colleagues (Ahrens et al.,1977) were recapitulated to observe calcification in vitro in this cell system. Calcium deposits became visible by von Kossa staining by 5 days in culture and prominent by day 12 (FIG. 3). […] Marker expression is consistent with a valve calcification phenotype and supports a central role for Runx2 in calcification (FIG. 2). For organ culture of intact valves, fresh aortic pig valves are obtained from the meat lab in the College of Agriculture and incubated on the surface of collagen gels. Experiments compare responses in intact aortic valves and VIC and VEC cell lines. […] Though 19 purinergic receptors are identified in Table 1, those P2Y and P2X receptors that are not found in valve tissues are excluded from further analysis.

micromass cultures = assay: Concentration of adenosine in culture media of micromass cultures after adding recombinant CD73; format: cell-based; design: concentration of adenosine in the culture media: unit not given here; conditions: 1 μg/ml, approximately 100,000 cells in a dish

Nc1ncnc2c1ncn2[C@@H]1O[C@H](COP(=O)(O)OP(=O)(O)OP(=O)(O)O)[C@@H](O)[C@H]1O [ATP]
osteocalcin and osteopontin (AVM cell cultures; 100 μM added every 12 hr, at 5 days): large increase
Alkaline phosphatase (ALP) activity [1]: increased
apoptosis as ratio of Bax/Bcl2 (valve cell cultures): apoptotic

Nc1nc(SCCc2ccc(S(=O)(=O)O)cc2)nc2c1ncn2[C@@H]1O[C@H](CO)[C@@H](O)[C@H]1O [PSB0777]
expression of Runx2 compared to control cultures (AVM cultures; 1 μM): reduced
induction of osteogenic markers (Runx2 and MGP) (mouse VIC): significant induction

O=P(O)(O)O [PO4]
osteogenic markers (AVM cell cultures; added to culture media, at 12 days, FIG. 13): increases

Nc1ncnc2c1ncn2[C@@H]1O[C@H](CO)[C@@H](O)[C@H]1O [adenosine]
Runx2 expression (AVM cultures; AVM cultures at 0.35 μM, 3.5 μM and 50 μM adenosine, normalized to GAPDH, FIG. 11): inhibited at an exposure consistent with the high affinity A1 receptor
Alkaline phosphatase (ALP) activity [1]: reduced

Nc1ncnc2c1ncn2[C@@H]1O[C@H](COP(=O)(O)O)[C@@H](O)[C@H]1O [AMP]
Runx2-II and Mgp (calcifying AVM cells): reduced

C[C@@]1(O)[C@H](O)[C@@H](CO)O[C@H]1n1cnc2c(NC3CCCC3)nc(Cl)nc21 [2′-MeCCPA]
expression of Runx2 compared to control cultures (AVM cultures; 0.1 μM): reduced
induction of osteogenic markers (Runx2 and MGP) (mouse VIC): significant induction

C[C@H](NC(=O)Cc1cc(F)cc(F)c1)C(=O)N[C@H](C(=O)OC(C)(C)C)c1ccccc1 [DAPT, reference compound]
Runx2 expression [2]: reduced Runx2 expression
expression of other markers (Twist1, Cbfβ, MGP) [2]: upregulated the other markers

B1: noggin: inhibitor of BMP (protein, UniProt Q13253 28-232, looked up)
Noggin: QHYLHIRPAPSDNLPLVDLIEHPDPIFDPKEKDLNETLLRSLLGGHYDPGFMATSPPEDRPGGGGGAAGGAEDLAELDQLLRQRPSGAMPSEIKGLEFSEGLAQGKKQRLSKKLRRKLQMWLWSQTFCPVLYAWNDLGSRFWPRYVKVGSCFSKRSCSVPEGMVCKPSKSVHLTVLRWRCQRRGGQRCGWIPIQYPIISECKCSC
Runx2 expression [2]: little effect
expression of other markers (Twist1, Cbfβ, MGP) [2]: lesser effects

B2: recombinant CD73: ecto-5′-nucleotidase, converts AMP to adenosine (protein, UniProt P21589 27-549, looked up)
5'-nucleotidase: WELTILHTNDVHSRLEQTSEDSSKCVNASRCMGGVARLFTKVQQIRRAEPNVLLLDAGDQYQGTIWFTVYKGAEVAHFMNALRYDAMALGNHEFDNGVEGLIEPLLKEAKFPILSANIKAKGPLASQISGLYLPYKVLPVGDEVVGIVGYTSKETPFLSNPGTNLVFEDEITALQPEVDKLKTLNVNKIIALGHSGFEMDKLIAQKVRGVDVVVGGHSNTFLYTGNPPSKEVPAGKYPFIVTSDDGRKVPVVQAYAFGKYLGYLKIEFDERGNVISSHGNPILLNSSIPEDPSIKADINKWRIKLDNYSTQELGKTIVYLDGSSQSCRFRECNMGNLICDAMINNNLRHTDEMFWNHVSMCILNGGGIRSPIDERNNGTITWENLAAVLPFGGTFDLVQLKGSTLKKAFEHSVHRYGQSTGEFLQVGGIHVVYDLSRKPGDRVVKLDVLCTKCRVPSYDPLKMDEVYKVILPNFLANGGDGFQMIKDELLRHDSGDQDINVVSTYISKMKVIYPAVEGRIKFS
increase of adenosine concentration in the culture media (micromass cultures): 5 fold
concentration of adenosine in the culture media (micromass cultures; from 1.7 without enzyme): 8.7
effects of exogenous ATP (osteogenic markers, apoptosis) (AVM cell cultures; exogenous enzyme added with 100 μM ATP): reduced
